# Results published in PubChem BioAssay (NCI).
#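 Values below derive from 48-hour exposures of cells grown in 96-well plates, with endpoints linearly interpolated between the two concentrations bracketing the appropriate inhibition level. TGI marks complete inhibition of growth.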
# Columns and labels:
# Experiment in all cases: DTP human tumour cell line panel, 48 h
# [1] = tested on: LXFL 529 NSCLC
# [2] = tested on: SNB-78 CNS
# [3] = tested on: M19-MEL melanoma
# [4] = tested on: KM20L2 colon
# [5] = tested on: DLD-1 colon
# [6] = tested on: HOP-18 NSCLC
# [7] = tested on: XF 498 CNS
# [8] = tested on: DMS 273 small cell lung
# [9] = tested on: RXF-631 renal
Compound,TGI [1] [µM],TGI [2] [µM],TGI [3] [µM],TGI [4] [µM],TGI [5] [µM],TGI [6] [µM],TGI [7] [µM],TGI [8] [µM],TGI [9] [µM]
CC(C)=CC1CC(=[N+]=[N-])C(=O)C1(C)C (stereo not drawn),> 100,> 100,> 100,> 100,> 100,> 100,> 100,,
COc1ccc(OC)c(/C=C(/C#N)c2ccccc2)c1,> 100,,> 100,> 100,> 100,> 100,,24.5,
CS(=O)(=O)c1ccc(-c2cc(-c3ccc(S(C)(=O)=O)cc3)[n+](-c3cc(-c4ccccc4)c([O-])c(-c4ccccc4)c3)c(-c3ccc(S(C)(=O)=O)cc3)c2)cc1,> 100,> 100,> 100,> 100,,> 100,> 100,> 100,> 100
COc1ccc(C(C#N)NNC(=O)Cc2ccccc2)cc1OC (stereo not drawn),> 100,> 100,> 100,,> 100,> 100,,> 100,
C=CN1C(=O)[C@H](Oc2ccccc2)[C@@H]1c1ccccc1,> 100,> 100,> 100,> 100,> 100,> 100,84,,
CN(CCN(C)C(=O)CCn1cc(F)c(=O)[nH]c1=O)C(=O)CCn1cc(F)c(=O)[nH]c1=O,> 100,,> 100,> 100,,,> 100,> 100,
CC(Oc1ccc(OCC2CCCCC2)cc1)C(=O)OCC(=O)c1ccc(-c2ccccc2)cc1 (stereo not drawn),> 100,> 100,> 100,,> 100,> 100,> 100,> 100,
COc1cccc(C2CC23C(=O)NC(=O)NC3=O)c1 (stereo not drawn),> 100,> 100,> 100,> 100,,,> 100,> 100,
O=C(CSc1c2ccccc2nc2ccccc12)Nc1ccccc1-c1ccccc1NC(=O)CSc1c2ccccc2nc2ccccc12,25.9,92.2,61.1,> 100,33.4,> 100,46.2,> 100,
Cc1nn(C(=O)CC(=O)Nc2ccc(Cl)cc2)c(C)c1N=Nc1ccccc1C(=O)O,> 100,> 100,> 100,> 100,> 100,,,> 100,
COC(=O)[C@@]1(C)/C(=N/NS(=O)(=O)c2ccc(C)cc2)CCC[C@@H]1C,> 100,> 100,> 100,> 100,> 100,> 100,,,
COC(=O)C(C(=O)Cc1ccccc1[N+](=O)[O-])C(=O)OC,> 100,,> 100,> 100,> 100,> 100,> 100,> 100,> 100
CCOC(=O)/C(=C/c1ccc(N(C)C)cc1)N(CC)CC,> 100,> 100,60.1,> 100,,,> 100,,
CCOC1c2cc(C(C)C)c(O)c(O)c2[C@@]23CCCC(C)(C)C2C1OC3=O (stereo partly drawn),> 100,> 100,> 100,> 100,> 100,,,> 100,
CCCCC/C=C1\CCC(CN(C)C)C1=O (stereo not drawn),3.9,58.7,26.6,30.1,14.4,39.4,28.3,34,28.3
O=S(=O)(c1ccccc1)N1N=C2c3ccccc3CCC[C@H]2C1c1ccccc1 (stereo partly drawn),> 100,> 100,> 100,> 100,> 100,> 100,> 100,> 100,
